Measurements published in PMC9395488, “First-in-human study of IM156, a novel potent biguanide oxidative phosphorylation (OXPHOS) inhibitor, in patients with advanced solid tumors” (Investigational New Drugs, 2022).

System: patients with advanced solid tumors
Experiment: First-in-human phase 1 dose-escalation study: safety, DLTs, adverse events
Format: in vivo
Excerpt: This multicenter first-in-human dose-escalation phase 1 study (clinicaltrials.gov identifier: NCT03272256) was designed to determine the MTD or RP2D and to evaluate the safety and tolerability of IM156. Secondary endpoints included PK characteristics, efficacy assessment (objective response rate [ORR], disease control rate [DCR], duration of response [DoR] and progression-free survival [PFS]). Furthermore, exploratory objectives included identification and profiling of IM156 metabolites, evaluations of exploratory PD markers of IM156, and evaluations of any potential relationship between putative biomarkers and safety/efficacy parameters of IM156. The study was conducted in accordance with Good Clinical Practice, the International Council for Harmonisation, and guidelines governing clinical study conduct and the ethical principles originating from the Declaration of Helsinki. The study was approved by each Institutional Review Board and patients provided written informed consent. Patients were enrolled at three sites in South Korea.
The initial dose and schedule of IM156 was chosen based on animal toxicology studies. […] IM156 was administered in the fasted state, with no food for at least 2 h before and 1 h after dosing.
Three DLT-evaluable patients were enrolled at each dose level. If there were no DLTs or other prohibitive adverse events (AEs), the Safety Committee was allowed to recommend escalation to the next highest dose level. If 1 DLT occurred in the first 3 DLT-evaluable patients, enrollment in that cohort was expanded to an additional 3 DLT-evaluable patients; if ≥ 2 DLTs were reported in a cohort, that dose was considered above the MTD.
Safety was assessed through vital signs, weight, laboratory assessments, physical examinations, electrocardiogram, and reporting of AEs as graded by the National Cancer Institute’s Common Terminology Criteria for Adverse Events v4.03 (NCI-CTCAE).
DLTs were defined as the following AEs if they were attributed as related to IM156: asymptomatic grade 4 neutropenia lasting for ≥ 5 days; febrile neutropenia, regardless of grade; grade 4 thrombocytopenia or grade 3 thrombocytopenia with bleeding; any grade ≥ 3 non-hematologic AE (except grade 3 hypertension and grade 3 nausea, vomiting or diarrhea for which proper measures for prevention and treatment were not implemented, and alopecia); blood lactate levels > 5 mmol; grade ≥ 2 AE prohibiting dosing of IM156 for ≥ 21 continuous days except for alterations in serum calcium or phosphorus levels. The safety analysis includes all patients who received at least one dose of study drug.
The safety population was defined as all patients who received at least one dose of IM156. The PK population was not defined in the protocol but included all patients with sufficient PK data to perform adequate PK modeling. The efficacy population included all patients who underwent at least one tumor imaging assessment while receiving IM156. Safety was assessed using descriptive statistics (e.g., DLTs, AEs, laboratory tests, physical examination, 12-lead ECG). The incidence and number of events were reported for the DLTs observed in Cycle 1 per dose group. […] Adverse events and TRAEs were standardized with the System Organ Class and the Preferred Term using the Medical Dictionary for Regulatory Activities v23.0. In addition, TEAEs, serious adverse events (SAEs), TEAE severity, and TEAEs leading to withdrawal were presented by dose group. Efficacy data were to be presented by Waterfall and Swim Lane plots. Time to event endpoints (e.g., DoR, PFS) were determined using Kaplan–Meier estimations with the median value for each endpoint summarized.

## NC(=Nc1ccc(OC(F)(F)F)cc1)N=C(N)N1CCCC1 [IM156]
DL6 800 mg orally daily (n=3)
  TEAE Pain in extremity grade 4: 0
  TEAE Pruritus grade 1: 0
  TEAE Pruritus grade 2: 0
  TEAE Pruritus grade 3: 0
  TEAE Pruritus grade 4: 0
  TEAE Psychiatric disorders grade 1: 1
  TEAE Psychiatric disorders grade 2: 0
  TEAE Psychiatric disorders grade 3: 0
  TEAE Psychiatric disorders grade 4: 0
  TEAE Purpura grade 1: 0
  TEAE Purpura grade 2: 0
  TEAE Purpura grade 3: 0
  TEAE Purpura grade 4: 0
  TEAE Urinary retention grade 1: 0
  TEAE Urinary retention grade 2: 0
  TEAE Urinary retention grade 3: 0
  TEAE Urinary retention grade 4: 0
  TEAE Urinary tract disorder grade 1: 0
  TEAE Urinary tract disorder grade 2: 0
  TEAE Urinary tract disorder grade 3: 0
  TEAE Urinary tract disorder grade 4: 0
DL7 1200 mg QD (n=4)
  TEAE Abdominal pain, grade 2: 2
  TEAE Akathisia, grade 2: 1
  TEAE Alanine aminotransferase increased, grade 1: 1
  TEAE Aspartate aminotransferase increased, grade 1: 1
  TEAE Blood creatinine increased, grade 1: 2
  TEAE Blood lactic acid increased, grade 1: 1
  TEAE Constipation, grade 1: 1
  TEAE Decreased appetite, grade 2: 1
  TEAE Diarrhoea, grade 1: 2
  TEAE Dysesthesia, grade 1: 1
  TEAE Fatigue, grade 2: 3
  TEAE Gastritis, grade 1: 1
  TEAE Hemoptysis, grade 2: 1
  TEAE Hyperkalaemia, grade 3: 1
  TEAE Ileus, grade 2: 1
  TEAE Influenza like illness, grade 1: 1
  TEAE Lethargy, grade 2: 1
  TEAE Nausea, grade 2: 2
  TEAE Nausea, grade 3: 2
  TEAE Oedema peripheral, grade 2: 1
  TEAE Pain, grade 2: 1
  TEAE Platelet count decreased, grade 1: 1
  TEAE Pyrexia, grade 1: 2
  TEAE Pyrexia, grade 2: 1
  TEAE Vomiting, grade 1: 3
DL7 1,200 mg QD, N = 4
  TRAE Abdominal Pain, > G3 (patients): 0
  TRAE Abdominal Pain, All grades (patients): 1
  TRAE Blood Lactic Acid increased, > G3 (patients): 0
  TRAE Blood Lactic Acid increased, All grades (patients): 1
  TRAE Constipation, > G3 (patients): 0
  TRAE Constipation, All grades (patients): 1
  TRAE Decreased appetite, > G3 (patients): 0
  TRAE Decreased appetite, All grades (patients): 1
  TRAE Diarrhoea, > G3 (patients): 0
  TRAE Diarrhoea, All grades (patients): 1
  TRAE Fatigue, > G3 (patients): 0
  TRAE Fatigue, All grades (patients): 3
  TRAE Insomnia, > G3 (patients): 0
  TRAE Insomnia, All grades (patients): 0
  TRAE Nausea, > G3 (patients): 2
  TRAE Nausea, All grades (patients): 4
  TRAE Vomiting, > G3 (patients): 0
  TRAE Vomiting, All grades (patients): 3
DL7 1200 mg orally daily (n=4)
  TEAE Adrenal insufficiency grade 1: 0
  TEAE Adrenal insufficiency grade 2: 0
  TEAE Adrenal insufficiency grade 3: 0
  TEAE Adrenal insufficiency grade 4: 0
  TEAE Anaemia grade 1: 0
  TEAE Anaemia grade 2: 1
  TEAE Anaemia grade 3: 1
  TEAE Anaemia grade 4: 0
  TEAE Appendicitis perforated grade 1: 0
  TEAE Appendicitis perforated grade 2: 0
  TEAE Appendicitis perforated grade 3: 1
  TEAE Appendicitis perforated grade 4: 0
  TEAE Back pain grade 1: 0
  TEAE Back pain grade 2: 0
  TEAE Back pain grade 3: 0
  TEAE Back pain grade 4: 0
  TEAE Cystitis grade 1: 0
  TEAE Cystitis grade 2: 0
  TEAE Cystitis grade 3: 0
  TEAE Cystitis grade 4: 0
  TEAE Dry skin grade 1: 0
  TEAE Dry skin grade 2: 1
  TEAE Dry skin grade 3: 0
  TEAE Dry skin grade 4: 0
  TEAE Flank pain grade 1: 0
  TEAE Flank pain grade 2: 0
  TEAE Flank pain grade 3: 0
  TEAE Flank pain grade 4: 0
  TEAE Hypertension grade 1: 0
  TEAE Hypertension grade 2: 0
  TEAE Hypertension grade 3: 0
  TEAE Hypertension grade 4: 0
  TEAE Hypotension grade 1: 0
  TEAE Hypotension grade 2: 0
  TEAE Hypotension grade 3: 0
  TEAE Hypotension grade 4: 0
  TEAE Insomnia grade 1: 0
  TEAE Insomnia grade 2: 0
  TEAE Insomnia grade 3: 0
  TEAE Insomnia grade 4: 0
  TEAE Pain in extremity grade 1: 0
  TEAE Pain in extremity grade 2: 0
  TEAE Pain in extremity grade 3: 0
  TEAE Pain in extremity grade 4: 0
  TEAE Pruritus grade 1: 1
  TEAE Pruritus grade 2: 0
  TEAE Pruritus grade 3: 0
  TEAE Pruritus grade 4: 0
  TEAE Psychiatric disorders grade 1: 0
  TEAE Psychiatric disorders grade 2: 0
  TEAE Psychiatric disorders grade 3: 0
  TEAE Psychiatric disorders grade 4: 0
  TEAE Purpura grade 1: 1
